In the assay the test system is gene switch components VP16/RxR and Gal4/EcR controlling mbIL-15 in CD19 CAR-T cells. In words: T cell activation and ligand specific control of mbIL-15 (NFAT6-IL2 promoter driven gene switch), flow cytometry. In kind it is cell-based, human. As for the experimental part: Sleeping Beauty transposons were designed to stably express CD19-specific CAR, a cell tag as well as gene switch-controlled mbIL-15. Expression of one or both of gene switch components (e.g. VP16/RxR and Gal4/EcR) were performed under the control of a T cell activation specific promoter. In this example, a T cell activation dependent promoter generated by 6×NFAT response element fused to minimal IL-2 promoter (NFAT6-IL2 promoter) was utilized to drive expression of gene switch components—VP16-RxR and/or Gal4-EcR fusion proteins for conditional expression of mbIL-15. When components of the gene switch are under the control of NFAT6-IL2 promoter, expression of mbIL-15 requires two conditions to be met: 1) T cells are activated; and 2) activator ligand, veledimex, to be present. SB transposons construct combinations shown in FIG. 20A were transfected along with SB11 transposase in donor T cells. […]
The following day (day 1) cells were counted, and CAR expression was measured by flow cytometry. […]
For flow cytometry analysis to assess expression of various markers and gene(s) of interest cells were gently resuspended and cell number and viability were measured using Trypan blue exclusion method with the Countess instrument. Cell diameter size was also recorded. […] The prepared antibody cocktails and associated fluorescence minus one/isotype control were added to stain the cell samples, and then the samples were incubated on ice for 30 min. […] All samples were run on a LSR II flow cytometer, a Fortessa X-20 flow cytometer (BD Biosciences) or iQue Screener Plus (Intellicyt) and data was analyzed using FlowJo V10 (TreeStar, Ashland, Oreg.) or iQue Screener software. […]
Non-activated or activated CAR-T cells were harvested and either 100 nM veledimex or DMSO (to keep DMSO concentration constant in both cultures) was added to the cultures. […] CAR and mbIL-15 expression was quantified in either resting (FIG. 20B) or activated T cells in presence of absence of veledimex (FIG. 20C: ConA 1 μg/mL; ConA 5 μg/mL: FIG. 20D, PMA/Ionomycin: FIG. 20E).

The values that follow come from US11692194B2, “Modulating expression of polypeptides via new gene switch expression systems” (Precigen, Inc., priority 2017, dated 2023).

SMILES strings stand for the structures. “Also recorded” adds a separate entry of the source.

Turning to `CCC[C@@H](N(NC(=O)c1cccc(OC)c1CC)C(=O)c1cc(C)cc(C)c1)C(C)(C)C` [veledimex, N-[(1R)-1-(1,1-dimethylethyl)butyl]-N′-(2-ethyl-3-methoxybenzoyl)-3,5-dimethylbenzohydrazide], for the setting “constructs #3, 4 and 6, ConA 1 or 5 μg/mL or PMA/Ionomycin, 100 nM veledimex”, the “mbIL-15 expression in activated CAR-T cells with gene switch components under NFAT6-IL-2 promoter” value was “exhibited expression of mbIL-15; also recorded: dependent on T cell activation (with addition of ConA) and presence of veledimex”. Besides, the “mbIL-15 expression in absence of T cell activation” value (resting CAR-T cells, 100 nM veledimex, at least 24 hours) was “only CAR-T cells that harbor transposons for expression of gene switch components (e.g. VP16/RxR and Gal4/EcR) under a constitutive promoter were able to express mbIL-15”. Further, the “levels of mbIL-15 expression versus level of T cell activation” value (veledimex at fixed concentration, ConA 1 vs 5 μg/mL) was “increased with level of T cells activation”.
